Reference: patent US6096707A, “Integrin binding peptide and use thereof” (BioTie Therapies Ltd., priority 1997, dated 2000)
Positions of bridges follow the written chain, without caps; N, C: chain ends. Residues, ends and D or L forms follow the SMILES beside them.

Molecular target: T1, human recombinant integrin α2I domain (rα2I) (Homo sapiens, UniProt P17301)
T1 construct: GST (glutathione S-transferase, pGEX2T) (N, cleaved yes); made in house; host or cells: E. coli BL21 (pJKα2I, pGEX2T backbone)
T1 sequence (P17301 153-368): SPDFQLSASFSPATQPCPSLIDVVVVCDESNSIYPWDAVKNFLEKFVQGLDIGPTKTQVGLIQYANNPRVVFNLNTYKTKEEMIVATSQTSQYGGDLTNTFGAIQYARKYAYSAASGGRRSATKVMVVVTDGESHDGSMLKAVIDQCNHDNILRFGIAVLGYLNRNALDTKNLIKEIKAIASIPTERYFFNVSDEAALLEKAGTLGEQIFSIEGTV
Assay type: binding
Procedure: A 96-well immunoplate (Maxisorp, Nunc) was coated by exposing the surface of its well to 0.1 ml of PBS containing 5 μg/cm^2 of the plate surface, type I collagen (bovine dermal, Cellon), type IV collagen (Sigma), laminin-1 (purified from basement membranes of the Engelbreth-Holm-Swarm mouse tumor, Collaborative Research), fibronectin (human plasma fibronectin, Boehringer Mannheim) or 3.3 μg/ml echovirus-1 or echovirus-7 for 12 h at +4° C. Alternatively peptides and B. jararaca venom (Sigma) were coated at various concentrations on 96-well amine binding plates (Costar) according to the manufacturer's instructions.
Residual protein absorption sites on all wells were blocked with 0.1% heat inactivated bovine serum albumin in PBS for 1 h at +37° C. Echoviruses 1 (Farouk strain) and 7 (Wallace) were obtained from the ATCC. The purified viruses were diluted in PBS containing 0.5 mM MgCl2 and stored at -70° C. until used. Europium labeled rα2I was added at a concentration of 500 ng/ml in PBS, 2 mM MgCl2, 1 mg/ml BSA to the coated wells and incubated for 3 h at +37° C. Wells were then washed three times with PBS, 2mM MgCl2. 0.1 ml Delfia enhancement solution (Wallac) was added to each well and europium signal was measured with fluorometry (Model 1232 Delfia, Wallac). […]

C[C@@H]1NC(=O)[C@H](CC(N)=O)NC(=O)[C@H](CC(=O)O)NC(=O)[C@H](Cc2c[nH]cn2)NC(=O)[C@H](CCCCN)NC(=O)[C@H](CCCCN)NC(=O)[C@H](CCCNC(=N)N)NC(=O)[C@H]([C@@H](C)O)NC(=O)[C@@H](N)CSSC[C@@H](C(=O)O)NC(=O)[C@H](CCC(N)=O)NC1=O [229ox, CTRKKHDNAQC] (H-CTRKKHDNAQC-OH; disulfide 1-11)
inhibition of rα2I binding to B. jararaca venom by peptide: about 50%
